Measured values published in paper PMC9977887, “Crocodile defensin (CpoBD13) antifungal activity via pH-dependent phospholipid targeting and membrane disruption” (Nature Communications, 2023).
Where two headings read alike, the source gives them in different places. Where no end group is shown, it is not given here.

Key:
C. albicans ATCC 10231 [1] = assay: Fungal growth inhibition assay; assay type: cell-based, Candida albicans
Method: (§1) For fungal growth assays, overnight cultures of C. albicans ATCC 10231 cells (yeast peptone dextrose broth, 30°C, shaking at 160 rpm) were pelleted (2000 g, 5 min), washed once in 0.5× potato dextrose broth (BD Biosciences, Franklin Lakes, NJ) and finally resuspended in the same media. Cells were seeded onto a 96-well plate (400 cells, 50 µL) and treated with an equal volume of varying concentrations of defensin in 0.5× potato dextrose broth. After incubating the samples (24 h, 30 °C), the plates were shaken to distribute the cells and growth was determined by performing a 9-well scan (600 nm) using a Spectramax M5e microplate reader (Molecular Devices, San Jose, CA). For assays testing defensin salt tolerance, C. albicans cells were instead resuspended in 1x potato dextrose broth and treated with an equal volume of CpoBD13 + NaCl solution at their intended concentrations. Propidium iodide (PI) uptake assays were performed by preparing the cells as per the standard growth inhibition assay however they were instead seeded onto a U-bottom 96-well plate (50,000 cells, 25 µL). […] For PI uptake experiments performed at a specific pH, the same method was followed with the exception that cells were resuspended in 1× potato dextrose broth while defensin titrations were diluted in 40 mM MES buffer at the intended pH. An example PI uptake gating strategy is presented in Supplementary Fig. 1d.

U937 cells = assay: MTT/MTS cell viability assay; assay type: cell-based, human; conditions: 48 h, at the assessed concentrations
From the text: (§2) Human epithelial cervical cancer (HeLa, ATCC, CCL-2), prostate cancer (PC3, ATCC, CRL-1435) and histiocytic lymphoma (U937, ATCC, CRL-1593.2) cells were obtained from the American Type Culture Collection (Gaithersburg, Maryland) and cultured in RPMI-1640 medium (Thermo Fisher Scientific, Waltham, MA) supplemented with 5–10% (v/v) foetal bovine serum (FBS), 100 U/mL penicillin and 100 U/mL streptomycin (Invitrogen, Carlsbad, CA). Adult human dermal fibroblasts (AHDF, Lonza, CC-2511) cells were obtained from Lonza (Basel, Switzerland) and cultured in Dulbecco’s Modified Eagle Medium (DMEM) (Thermo Fisher Scientific) supplemented with 10% (v/v) FBS, 100 U/mL penicillin and 100 U/mL streptomycin. Human umbilical vein epithelial (HUVEC, Lonza, CC-2519) cells were obtained from Lonza and cultured in EBM-2 medium supplemented with EGM-2 SingleQuots (Lonza). All cell lines were maintained at 37 °C in a humidified incubator with 5% CO2.
(§3) Cell viability assays were performed using MTT/MTS as previously described[8].

[2] = Calcein-encapsulated liposome lysis assay; assay type: biochemical
Method: Liposomes were prepared using natural chicken egg L-α-phophatidylcholine and L-α-phosphatidic acid dissolved in chloroform (Avanti Polar Lipids), and liposome pulldowns (at pH 7.4) and calcein-encapsulated liposome lysis assays were performed as previously described. For liposome pulldowns performed at pH 5.5, the same protocol was used with minor variations. The desiccated lipid films were resuspended in 20 mM MES pH 7.4 and were washed in the same buffer during the centrifugation process. After the final wash step, the liposome pellets were resuspended in 20 mM MES pH 5.5 and incubated with CpoBD13 or mutants thereof (also prepared in the same acidic buffer).

C. albicans ATCC 10231 [3] = assay: Fungal growth inhibition assay, salt tolerance (NaCl); assay type: cell-based, Candida albicans; conditions: NaCl concentrations of 100 mM; 24 h
Method: as §1

From the text for HUVEC cells: as §2, §3

Substance “CpoBD13: saltwater crocodile β-defensin 13, histidine-rich, three disulphide bonds, recombinantly expressed in Pichia pastoris (NGSYYSTLQCRNNHGHCRRLCFHGEQWIGNCNGRHQHCCK; disulfide (positions not given here); also: three disulphide bonds, pairings not given here)” has an IC50 (C. albicans ATCC 10231 [1]; 24 h, Replicate 1, unit not in table, µM, read-out: IC50) of 4.19 µM, an IC50 (C. albicans ATCC 10231 [1]; 24 h, Replicate 2, unit not in table, µM, read-out: IC50) of 4.11 µM and an IC50 (C. albicans ATCC 10231 [1]; 24 h, Replicate 3, unit not in table, µM, read-out: IC50) of 4.1 µM. The IC50 (C. albicans ATCC 10231 [1]; 24 h, mean, n = 3, assessed range 0–10 µM, read-out: IC50 of fungal growth inhibition) was 4.1 µM, the IC50 (C. albicans ATCC 10231 [1]; Replicate 1, read-out: IC50) was 5.39 µM and the IC50 (C. albicans ATCC 10231 [1]; Replicate 2, read-out: IC50) was 5.34 µM. The IC50 (C. albicans ATCC 10231 [1]; Replicate 3, read-out: IC50) was 5.46 µM, the “effect on cell viability” value (U937 cells) was “did not affect the viability” and the “lysis of PC:PA liposomes relative to PC only liposomes” value ([2]; 20 µM, 30 min, calcein release) was “significant increase in the lysis”. For the same substance, the “Lysis (%)” value ([2]; PC liposomes, replicate 1) was 54.3884%, the “Lysis (%)” value ([2]; PC liposomes, replicate 2) was 55.3559% and the “Lysis (%)” value ([2]; PC liposomes, replicate 3) was 54.0992%. For the same substance, the “Lysis (%)” value ([2]; PC:PA liposomes, replicate 1) was 67.3935%, the “Lysis (%)” value ([2]; PC:PA liposomes, replicate 2) was 66.6111% and the “Lysis (%)” value ([2]; PC:PA liposomes, replicate 3) was 65.2527%. The “Lysis (%)” value ([2]; PC:PA, 20 µM, 0 min, replicate 1) was 25.7371%, the “Lysis (%)” value ([2]; PC:PA, 20 µM, 0 min, replicate 2) was 19.5617% and the “Lysis (%)” value ([2]; PC:PA, 20 µM, 0 min, replicate 3) was 31.0288%. The “Lysis (%)” value ([2]; PC:PA, 20 µM, 2 min, replicate 1) was 44.3847%, the “Lysis (%)” value ([2]; PC:PA, 20 µM, 2 min, replicate 2) was 47.8762% and the “Lysis (%)” value ([2]; PC:PA, 20 µM, 2 min, replicate 3) was 47.362%. For the same substance, the “Lysis (%)” value ([2]; PC:PA, 20 µM, 4 min, replicate 1) was 50.7757%, the “Lysis (%)” value ([2]; PC:PA, 20 µM, 4 min, replicate 2) was 55.3375% and the “Lysis (%)” value ([2]; PC:PA, 20 µM, 4 min, replicate 3) was 52.3336%. The “Lysis (%)” value ([2]; PC:PA, 20 µM, 6 min, replicate 1) was 56.1428%, the “Lysis (%)” value ([2]; PC:PA, 20 µM, 6 min, replicate 2) was 57.6724% and the “Lysis (%)” value ([2]; PC:PA, 20 µM, 6 min, replicate 3) was 56.2525%. For the same substance, the “Lysis (%)” value ([2]; PC:PA, 20 µM, 8 min, replicate 1) was 57.9433%, the “Lysis (%)” value ([2]; PC:PA, 20 µM, 8 min, replicate 2) was 61.2343% and the “Lysis (%)” value ([2]; PC:PA, 20 µM, 8 min, replicate 3) was 57.4403%. The “Lysis (%)” value ([2]; PC:PA, 20 µM, 10 min, replicate 1) was 60.1091%, the “Lysis (%)” value ([2]; PC:PA, 20 µM, 10 min, replicate 2) was 61.4149% and the “Lysis (%)” value ([2]; PC:PA, 20 µM, 10 min, replicate 3) was 58.1894%. The “Lysis (%)” value ([2]; PC:PA, 20 µM, 12 min, replicate 1) was 61.5771%, the “Lysis (%)” value ([2]; PC:PA, 20 µM, 12 min, replicate 2) was 62.8368% and the “Lysis (%)” value ([2]; PC:PA, 20 µM, 12 min, replicate 3) was 59.7071%. The “Lysis (%)” value ([2]; PC:PA, 20 µM, 14 min, replicate 1) was 62.1444%, the “Lysis (%)” value ([2]; PC:PA, 20 µM, 14 min, replicate 2) was 63.0568% and the “Lysis (%)” value ([2]; PC:PA, 20 µM, 14 min, replicate 3) was 60.7639%. For the same substance, the “Lysis (%)” value ([2]; PC:PA, 20 µM, 16 min, replicate 1) was 64.0158%, the “Lysis (%)” value ([2]; PC:PA, 20 µM, 16 min, replicate 2) was 63.5735% and the “Lysis (%)” value ([2]; PC:PA, 20 µM, 16 min, replicate 3) was 61.3601%. For the same substance, the “Lysis (%)” value ([2]; PC:PA, 20 µM, 18 min, replicate 1) was 65.2175%, the “Lysis (%)” value ([2]; PC:PA, 20 µM, 18 min, replicate 2) was 63.6472% and the “Lysis (%)” value ([2]; PC:PA, 20 µM, 18 min, replicate 3) was 61.6924%. For the same substance, the “Lysis (%)” value ([2]; PC:PA, 20 µM, 20 min, replicate 1) was 64.1335%, the “Lysis (%)” value ([2]; PC:PA, 20 µM, 20 min, replicate 2) was 65.2803% and the “Lysis (%)” value ([2]; PC:PA, 20 µM, 20 min, replicate 3) was 62.4881%. For the same substance, the “Lysis (%)” value ([2]; PC:PA, 20 µM, 22 min, replicate 1) was 64.7756%, the “Lysis (%)” value ([2]; PC:PA, 20 µM, 22 min, replicate 2) was 65.3585% and the “Lysis (%)” value ([2]; PC:PA, 20 µM, 22 min, replicate 3) was 63.4838%. For the same substance, the “Lysis (%)” value ([2]; PC:PA, 20 µM, 24 min, replicate 1) was 65.4459%, the “Lysis (%)” value ([2]; PC:PA, 20 µM, 24 min, replicate 2) was 66.2461% and the “Lysis (%)” value ([2]; PC:PA, 20 µM, 24 min, replicate 3) was 64.0406%. The “Lysis (%)” value ([2]; PC:PA, 20 µM, 26 min, replicate 1) was 65.9416%, the “Lysis (%)” value ([2]; PC:PA, 20 µM, 26 min, replicate 2) was 66.5138% and the “Lysis (%)” value ([2]; PC:PA, 20 µM, 26 min, replicate 3) was 64.3943%. The “Lysis (%)” value ([2]; PC:PA, 20 µM, 28 min, replicate 1) was 66.2501%, the “Lysis (%)” value ([2]; PC:PA, 20 µM, 28 min, replicate 2) was 65.4475% and the “Lysis (%)” value ([2]; PC:PA, 20 µM, 28 min, replicate 3) was 64.7127%. For the same substance, the “Lysis (%)” value ([2]; PC:PA, 20 µM, 30 min, replicate 1) was 67.3935%, the “Lysis (%)” value ([2]; PC:PA, 20 µM, 30 min, replicate 2) was 66.6111% and the “Lysis (%)” value ([2]; PC:PA, 20 µM, 30 min, replicate 3) was 65.2527%. For the same substance, the “Lysis (%)” value ([2]; PC, 20 µM, 0 min, replicate 1) was 15.1234%, the “Lysis (%)” value ([2]; PC, 20 µM, 0 min, replicate 2) was 15.1242% and the “Lysis (%)” value ([2]; PC, 20 µM, 0 min, replicate 3) was 13.8859%. The “Lysis (%)” value ([2]; PC, 20 µM, 2 min, replicate 1) was 39.0447%, the “Lysis (%)” value ([2]; PC, 20 µM, 2 min, replicate 2) was 32.4816% and the “Lysis (%)” value ([2]; PC, 20 µM, 2 min, replicate 3) was 30.5639%. For the same substance, the “Lysis (%)” value ([2]; PC, 20 µM, 4 min, replicate 1) was 45.2997%, the “Lysis (%)” value ([2]; PC, 20 µM, 4 min, replicate 2) was 38.3127% and the “Lysis (%)” value ([2]; PC, 20 µM, 4 min, replicate 3) was 36.68%. The “Lysis (%)” value ([2]; PC, 20 µM, 6 min, replicate 1) was 48.9071%, the “Lysis (%)” value ([2]; PC, 20 µM, 6 min, replicate 2) was 41.9281% and the “Lysis (%)” value ([2]; PC, 20 µM, 6 min, replicate 3) was 41.2305%. The “Lysis (%)” value ([2]; PC, 20 µM, 8 min, replicate 1) was 49.7649%, the “Lysis (%)” value ([2]; PC, 20 µM, 8 min, replicate 2) was 44.0474% and the “Lysis (%)” value ([2]; PC, 20 µM, 8 min, replicate 3) was 43.6445%. The “Lysis (%)” value ([2]; PC, 20 µM, 10 min, replicate 1) was 51.7674%, the “Lysis (%)” value ([2]; PC, 20 µM, 10 min, replicate 2) was 44.7293% and the “Lysis (%)” value ([2]; PC, 20 µM, 10 min, replicate 3) was 45.2138%. For the same substance, the “Lysis (%)” value ([2]; PC, 20 µM, 12 min, replicate 1) was 52.4795%, the “Lysis (%)” value ([2]; PC, 20 µM, 12 min, replicate 2) was 46.5217% and the “Lysis (%)” value ([2]; PC, 20 µM, 12 min, replicate 3) was 46.4513%. The “Lysis (%)” value ([2]; PC, 20 µM, 14 min, replicate 1) was 52.8236%, the “Lysis (%)” value ([2]; PC, 20 µM, 14 min, replicate 2) was 47.6803% and the “Lysis (%)” value ([2]; PC, 20 µM, 14 min, replicate 3) was 47.9678%. The “Lysis (%)” value ([2]; PC, 20 µM, 16 min, replicate 1) was 54.9403%, the “Lysis (%)” value ([2]; PC, 20 µM, 16 min, replicate 2) was 49.0986% and the “Lysis (%)” value ([2]; PC, 20 µM, 16 min, replicate 3) was 49.0311%. The “Lysis (%)” value ([2]; PC, 20 µM, 18 min, replicate 1) was 53.0929%, the “Lysis (%)” value ([2]; PC, 20 µM, 18 min, replicate 2) was 50.179% and the “Lysis (%)” value ([2]; PC, 20 µM, 18 min, replicate 3) was 50.039%. The “Lysis (%)” value ([2]; PC, 20 µM, 20 min, replicate 1) was 53.041%, the “Lysis (%)” value ([2]; PC, 20 µM, 20 min, replicate 2) was 50.8527% and the “Lysis (%)” value ([2]; PC, 20 µM, 20 min, replicate 3) was 51.0255%. The “Lysis (%)” value ([2]; PC, 20 µM, 22 min, replicate 1) was 54.0904%, the “Lysis (%)” value ([2]; PC, 20 µM, 22 min, replicate 2) was 52.2587% and the “Lysis (%)” value ([2]; PC, 20 µM, 22 min, replicate 3) was 51.6328%. For the same substance, the “Lysis (%)” value ([2]; PC, 20 µM, 24 min, replicate 1) was 54.3794%, the “Lysis (%)” value ([2]; PC, 20 µM, 24 min, replicate 2) was 53.0954% and the “Lysis (%)” value ([2]; PC, 20 µM, 24 min, replicate 3) was 52.0331%. The “Lysis (%)” value ([2]; PC, 20 µM, 26 min, replicate 1) was 55.6275%, the “Lysis (%)” value ([2]; PC, 20 µM, 26 min, replicate 2) was 53.8088% and the “Lysis (%)” value ([2]; PC, 20 µM, 26 min, replicate 3) was 52.9179%. For the same substance, the “Lysis (%)” value ([2]; PC, 20 µM, 28 min, replicate 1) was 53.4363%, the “Lysis (%)” value ([2]; PC, 20 µM, 28 min, replicate 2) was 55.2629% and the “Lysis (%)” value ([2]; PC, 20 µM, 28 min, replicate 3) was 53.0065%. The “Lysis (%)” value ([2]; PC, 20 µM, 30 min, replicate 1) was 54.3884%, the “Lysis (%)” value ([2]; PC, 20 µM, 30 min, replicate 2) was 55.3559% and the “Lysis (%)” value ([2]; PC, 20 µM, 30 min, replicate 3) was 54.0992%. For the same substance, the “antifungal activity in NaCl” value (C. albicans ATCC 10231 [3]) was “retained antifungal activity” and the “effect on cell viability” value (HUVEC cells) was “did not affect the viability”.
